Measurements taken from PubChem BioAssay (NCI).
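Following 48 hours of exposure in 96-well plates, responses at five concentrations were used to interpolate endpoints linearly. At the GI50, growth is halved. TGI is the concentration that stops growth completely.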

Assays:
Assay in all cases: growth of human tumour cells (NCI), 48 h
HCT-116 colon = tested on: HCT-116 colon
HT29 colon = tested on: HT29 colon
HCT-15 colon = tested on: HCT-15 colon
SK-MEL-5 melanoma = tested on: SK-MEL-5 melanoma
UO-31 renal = tested on: UO-31 renal
SK-MEL-28 melanoma = tested on: SK-MEL-28 melanoma
NCI-H522 lung = tested on: NCI-H522 lung
BT-549 breast = tested on: BT-549 breast
MALME-3M melanoma = tested on: MALME-3M melanoma
LOX IMVI melanoma = tested on: LOX IMVI melanoma

SMILES	TGI (HCT-116 colon) [µM]	TGI (HT29 colon) [µM]	TGI (HCT-15 colon) [µM]	TGI (SK-MEL-5 melanoma) [µM]	TGI (UO-31 renal) [µM]	TGI (SK-MEL-28 melanoma) [µM]	TGI (NCI-H522 lung) [µM]	TGI (BT-549 breast) [µM]	TGI (MALME-3M melanoma) [µM]	TGI (LOX IMVI melanoma) [µM]	GI50 (HCT-116 colon) [µM]	GI50 (HT29 colon) [µM]	GI50 (HCT-15 colon) [µM]	GI50 (SK-MEL-5 melanoma) [µM]	GI50 (UO-31 renal) [µM]	GI50 (SK-MEL-28 melanoma) [µM]	GI50 (NCI-H522 lung) [µM]	GI50 (BT-549 breast) [µM]	GI50 (MALME-3M melanoma) [µM]	GI50 (LOX IMVI melanoma) [µM]
c1ccc([P+](c2ccccc2)(c2ccccc2)c2ccc([P+](c3ccccc3)(c3ccccc3)c3ccccc3)cc2)cc1	> 100	> 100	> 100	> 100	> 100	> 100	> 100	> 100	> 100	> 100										
Cc1ccc(/C=C2\CN(C)CC3C2=NC(=S)NC3c2ccc(C)cc2)cc1 (stereo not given)	> 100	> 100	> 100	> 100	> 100	> 100	> 100	> 100	> 100	> 100										
Cc1cn([C@H]2[C@@H](CO)C[C@H]2O)c(=O)[nH]c1=O	> 100	> 100	> 100	> 100	> 100	> 100	> 100	> 100	> 100	> 100										
COc1ccc(C=Nc2ccc(-c3nc4ccccc4[nH]3)cc2)cc1OC	> 100	> 100	> 100	> 100	> 100	> 100	> 100	> 100	> 100	> 100										
COc1ccc(C(=O)c2ccc(-n3cc(/C=C/[N+](=O)[O-])c4ccccc43)cc2)cc1	28.2	57.3	41.1	> 61.9	37.1	> 89.2	33.8	33.7	46.8	19.2										
Cn1c(=O)sc2cc(C(=S)N3CCOCC3)ccc21	> 100	> 100	> 100	> 100	> 100	> 100	> 100	> 100	> 100	> 100										
CCCCCCCCCCCCCCCCOCC(Cl)COP(=O)(O)OP(=O)(O)OCC1OC(n2cnc3c(N)ncnc32)C(O)C1O (stereo not given)	> 100	> 100	> 100	> 100	> 100	> 100	> 100	> 100	> 100	> 100										
CCCCCCOP(=O)(OCCCCCC)OC(C(=O)OC)C(F)(F)F (stereo not given)	> 100	> 100	> 100	> 100	> 100	> 100	> 100	> 100	> 100	> 100										
Oc1[nH]c2ccccc2c1/C=c1/cc2c(c(-c3ccc(C(F)(F)F)cc3)n1)=Nc1ccccc1-2	10.1	11.4	15.8	19.3	20.7	18.8	14.3	15.7	27.4	22.5	2.9	3.16	3.59	5.28	2.55	1.84	1.67	4.17	9.14	8.87
COc1cc2cc(C(=O)N3CC(CCl)c4c3cc([N+](C)(C)Cc3ccc([N+](=O)[O-])n3C)c3ccccc43)[nH]c2c(OC)c1OC (stereo not given)	6.92	> 100		4.18		9.11	0.981	11.5	25.6	12.3										
CO[P@]1(=O)O[C@@H](c2ccccc2)[C@H](O)[C@@]1(O)c1ccccc1	> 100	> 100	> 100	> 100	> 100	> 100	> 100	> 100	> 100	> 100										
CC(C)(C)OC(=O)N1CCc2c(n(C/C=C/c3ccccc3)[nH]c2=O)C1	> 100	> 100	> 100	> 100	> 100	> 100	> 100	> 100	> 100	> 100										
CC12CC(c3ccccc3O1)C(C(=O)Nc1cccc(F)c1)C(=O)N2 (stereo not given)	> 100	> 100	> 100	54.8	24.9	> 100	> 100	66.8	> 100	> 100										
C=C1CC(Cn2cc(Br)c(=O)[nH]c2=O)(c2ccc(-c3ccccc3)cc2)OC1=O (stereo not given)	1.32	1.91	3.8	2.55	3.93	0.671	2.55	3.31	3.06	2.61										
Cc1ccc2c(c1)CC1(C2=O)[C@H](c2ccccc2)C2C(=O)c3ccc(C)cc3C2[C@H]1c1ccccc1 (stereo not given in full)	> 100	> 100	> 100		> 100	> 100	> 100	> 100	> 100	> 100										
CC(C)C1CC(CO)(CNc2cc(Cl)nc(N)n2)C1 (stereo not given)	> 100	> 100	> 100	40.8	> 100	> 100	> 100	> 100	> 100	> 100										
O=C1CSC2(CC(/C=C/c3ccccc3Br)=NN2c2cccc(S(=O)(=O)O)c2)N1c1nc2ccccc2s1 (stereo not given)	> 100	> 100	> 100	> 100	> 100	> 100	> 100	> 100	> 100	> 100										
COc1ccc(-c2nc(-c3cnccn3)n(C3OC(CO)C(O)C(O)C3O)n2)cc1 (stereo not given)	> 100	> 100	> 100	> 100	> 100	> 100	> 100	> 100		> 100										
NS(=O)(=O)c1cc(S(N)(=O)=O)c(NC(=O)N(c2ccccc2)c2ccccc2)c(Cl)c1Cl	> 100	48.2	> 100	33.1	94.1	> 100	27.1	36.1		25										
